Experimental data published in PMC9781268, “2-Arylpropionic Acid Pyrazolamides as Cannabinoid CB2 Receptor Inverse Agonists Endowed with Anti-Inflammatory Properties” (Pharmaceuticals, 2022).
Converted amounts (≈) assume the structure as drawn. “Also recorded” adds a separate entry of the source.

How the values were obtained:
[1] = Aqueous solubility (thermodynamic, UV spectroscopy); assay type: physicochemical; conditions: aqueous buffer, thermodynamic from solid, phosphate buffer pH 7.4, 37 °C
Method: The test was performed based on the absorbance obtained by ultraviolet spectroscopy. The scanning wavelength was determined according to the highest absorbance observed for each compound. Saturated aqueous solution of the analyzed compounds were stirred for 4 h at 37 °C, and then filtered through a 0.45 µm PVDF filter and transferred to a quartz cuvette (10 mm optical path) for reading. Solubility was determined by linear regression based on the equation of the line.

[2] = Distribution coefficient at pH 7.4 (shake-flask, octanol/phosphate buffer); assay type: physicochemical; conditions: 1-octanol/buffer pH 7.4; n-octanol/buffer partitioning at pH 7.4, UV method; read-out: Log D7.4
Method: The assay was performed based on the shake-flask method and the absorbance readings by ultraviolet spectroscopy at maximum absorbance wavelength. To a Falcon tube with a capacity of 15 mL, 5 mL of buffer solution at pH 7.4 and 5 mL of 1-octanol were added. Then, the tested compounds were added at defined concentrations of approximately 10–15 µM, and the mixtures were homogenized via vigorous manual shaking. Next, the Falcon tubes were stirred for 4 h at 37 °C, and the experiment was carried out in triplicate for each compound. Subsequently, each sample was placed in a separatory funnel, and the collected aqueous phase was filtered through a 0.45 µm PVDF filter and transferred to a quartz cuvette (10 mm optical path) for UV/Vis reading. The distribution coefficient of each compound at pH 7.4 was determined by linear regression using the straight-line equation [33].

[3] = Parallel artificial membrane permeability assay, blood-brain barrier (PAMPA-BBB)
Method: In a 5 mL glass vial, 1 mg of each compound (test or control) was dissolved in 1 mL of ethanol. Then, 500 μL of ethanol and 3.5 mL of PBS at pH 7.4 were added to this solution. […] After 5 min, the donor plate received 180 μL of each compound solution in triplicate. […] The experiments were performed in triplicate with two different analyses (n = 2).

[4] = test system: plasma carboxylesterases; experiment: Plasma stability against enzymatic hydrolysis; assay type: in vitro ADME, Wistar rats; conditions: rat plasma, determined after 240 min
Method: For the evaluation of plasma stability against plasma carboxylesterases, a pool of plasma male Wistar rats weighing 300–360 g kept in the vivarium of the Laboratory of Biochemical and Molecular Pharmacology-UFRJ was used. Blood was collected with heparin and kept on ice. Then, the samples were centrifuged at 2000 rpm for 15 min at 20 °C, with subsequent removal of the plasma. The plasma was then diluted 80% (v/v) with phosphate buffer (PBS; pH = 7.4) at 37 °C. The experiments performed in this work were approved by the Ethics Committee on the Use of Animals in Scientific Experiments of the Health Sciences Center of the Federal University of Rio de Janeiro (Number 028/15). The biological matrix was incubated at 37 °C under agitation for 30, 60, 120, and 240 min. The degree of degradation was evaluated by HPLC-PDA with methyl 1,1′bisphenyl-4-carboxylate as an internal standard (PI), using an isocratic mobile phase of 70%:30% acetonitrile:water (0–15 min), an injection volume of 20 μL, a flow rate of 1 mL/min, and detection at 254 nm.

[5] = molecular target: T1, human CB1 (Homo sapiens, UniProt P21554); experiment: Agonist activity, cAMP in CB1-transfected CHO cells; assay type: cell-based; conditions: CB1-expressing CHO cells
T1 construct: host or cells: CHO cells
T1 sequence (P21554 whole entry): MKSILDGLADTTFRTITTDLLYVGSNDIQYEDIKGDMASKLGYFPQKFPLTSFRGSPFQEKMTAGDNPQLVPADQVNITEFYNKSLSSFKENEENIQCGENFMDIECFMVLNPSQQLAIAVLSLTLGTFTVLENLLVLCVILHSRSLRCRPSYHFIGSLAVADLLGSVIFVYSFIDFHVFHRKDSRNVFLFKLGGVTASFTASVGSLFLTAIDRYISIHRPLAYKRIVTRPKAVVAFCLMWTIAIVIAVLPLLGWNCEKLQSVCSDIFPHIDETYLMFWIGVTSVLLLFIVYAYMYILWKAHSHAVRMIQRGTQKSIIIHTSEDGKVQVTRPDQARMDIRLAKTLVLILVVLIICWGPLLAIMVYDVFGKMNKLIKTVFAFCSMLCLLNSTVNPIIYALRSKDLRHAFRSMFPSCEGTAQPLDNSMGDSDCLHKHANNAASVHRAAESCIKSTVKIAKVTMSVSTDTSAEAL
Method: (§1) Negative and blank controls were performed in triplicate with and without the addition of forskolin, respectively.

[6] = test system: formalin-induced licking behavior in mice; experiment: Formalin-induced licking behavior; assay type: in vivo, Swiss Webster mice
Method: This assay was performed as described by Hunskaar et al. and adapted by Gomes et al.. This model was characterized by a response that occurred in two phases. The first phase (acute neurogenic pain) occurred during the first 5 min after the intraplantar injection of formalin, and the second phase (inflammatory pain) occurred 15 to 30 min post-injection. Mice were pretreated with oral doses of LASSBio-2265 (11, at 1, 3 or 10 mg/kg, p.o.), morphine (2.5 mg/kg, i.p.), acetylsalicylic acid (ASA, 200 mg/kg, p.o.), or the vehicle (same amount of DMSO used to solubilize the substances + NaCl 0.9%) 60 min before the administration of formalin. […] Then, mice (n = 7 per group) received 20 μL of formalin (2.5% v/v) in the dorsal surface of the left hind paw. The time that the mice spent licking the injected paw was immediately recorded. […] The final volume administered to mice was 0.1 mL.

[7] = molecular target: T2, human CB2 (Homo sapiens, UniProt P34972); experiment: Agonist activity, cAMP in CB2-transfected CHO cells; assay type: cell-based; set-up: host or cells: CHO cells; conditions: CB2-expressing CHO cells, from 1 μM
T2 sequence (P34972 whole entry): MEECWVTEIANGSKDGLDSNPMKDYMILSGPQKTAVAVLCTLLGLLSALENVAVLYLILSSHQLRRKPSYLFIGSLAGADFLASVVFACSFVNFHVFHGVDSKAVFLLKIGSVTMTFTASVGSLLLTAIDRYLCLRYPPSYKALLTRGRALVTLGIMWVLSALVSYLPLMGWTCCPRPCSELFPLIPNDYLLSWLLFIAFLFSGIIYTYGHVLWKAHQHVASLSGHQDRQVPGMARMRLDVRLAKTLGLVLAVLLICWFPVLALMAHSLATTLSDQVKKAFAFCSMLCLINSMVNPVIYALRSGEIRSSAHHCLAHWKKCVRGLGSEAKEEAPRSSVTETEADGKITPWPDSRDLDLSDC
Method: as §1

[8] = molecular target: T2, human CB2; experiment: Inverse agonist activity, cAMP Hunter CHO-K1 CNR2 Gi cells (HitHunter cAMP XS+); assay type: cell-based; set-up: host or cells: cAMP Hunter CHO-K1 CNR2 Gi; conditions: inverse agonism, cAMP increase, 8 μM (EC20) forskolin
Method: The cellular functional assay used to evaluate the inverse agonist activity of LASSBio-2265 (11) toward the cannabinoid CB2 receptor was carried out at Eurofins DiscoveryX Corporation USA (https://www.discoverx.com/home) under the study number FR095-0025341-Q (accessed on 02 June 2021) using the GPCR Biosensor Assay. Cell line cAMP Hunter CHO-K1 CNR2 Gi was seeded at a total volume of 20 µL into white-walled, 384-well microplates and incubated at 37 °C prior to testing in the presence of 8 μM (EC20) forskolin. The media was aspirated from the cells and replaced with 15 µL a 2:1 solution of Hanks’ balanced salt solution (HBSS)/10 mM Hepes:cAMP XS+ Ab reagent. Intermediate dilution of the sample stocks was performed to generate 4× samples in assay buffer containing 32 μM forskolin. Then, 5 µL of each 4× sample was added to the cells and incubated at 37 °C for 60 min. […] After signal generation, the microplates were read with a PerkinElmer Envision instrument for chemiluminescent signal detection. Compound activity was analyzed using the CBIS data analysis suite (ChemInnovation, San Diego, CA, USA). Percent activity was calculated using the following formula: […]
(§2) Data obtained from duplicate experiments were fit to concentration-response curves by non-linear regression of the Hill equation. Curve-fit parameters and standard errors were calculated using GraphPad Prism 6.0 (Hercules, CA, USA).

[9] = molecular target: T2, human CB2; experiment: Human CB2 (agonist radioligand) receptor binding assay, [3H]-WIN 55212-2; set-up: host or cells: cAMP Hunter CHO-K1 CNR2 Gi; conditions: membranes from CB2-expressing CHO cells, [3H]-WIN55212-2 radioligand, duplicate
Method: Assays of binding to CB2 receptors were performed at Eurofins Discovery France (https://www.eurofinsdiscoveryservices.com/) under the study number 100057099 (accessed on 3 June 2021) using the protocol previously published by Munro, Thomas, and Abu-Shaar. Human recombinant CB2 receptors were expressed in CHO cells, and binding was performed with [^3H]-WIN 55212-2, which is a nonselective agonist radioligand. The analysis was performed using software developed at Cerep (Hill software, Santa Barbara, CA, USA) and SigmaPlot 4.0 for Windows (^©1997 by SPSS Inc., Chicago, IL, USA).
as §2

[10] = Parallel artificial membrane permeability assay, gastrointestinal (PAMPA-GI / PAMPA-GTI)
Method: A 10 mM solution of each compound (tests and controls) was prepared in DMSO. Then, in a 5 mL glass flask, 250 µL of the freshly prepared solution was homogenized with 4750 µL of PBS at pH 6.6 to a concentration of 10 mM. The solution was then filtered in a 0.45 µm PVDF filter and set aside. Then, 180 µL of a solution of phosphate-bufffered saline (PBS, pH 7.4):DMSO (95:5) was added to the wells of the receptor plate, and 5 µL of the soy L-α-phosphatidylcholine lipid solution (20 mg/mL in dodecane) was added to the wells of the donor plate. After 5 min, the donor plate received 180 µL of the reserved solution containing each compound. […] After this period, the donor plate was removed, and the contents of the recipient plate were transferred to a UV reading plate and read (SpectraMax 5, Molecular Devices) at the maximum wavelengths for each compound. The blank was prepared with 180 µL of PBS solution (pH 7.4):DMSO (95:5). The experiments were carried out in triplicate with two different analyses (n = 2) [37]. The optical density values obtained from the readings at each selected wavelength for each of the compounds were analyzed by comparison with the values of the controls. These values were used to determine the absorbed fraction (Fa %) using the JMP® program version 10.0.

solubility at 4 h [1]: 68.5 µM (≈ 30.4 µg/mL)
logD [2]: 1.98
Papp at 2.75 h, 0.2 mg/mL ([3]; PAMPA, pH 7.4): 9.26 ×10⁻⁶ cm/s
Classification ([3]; Table S2, PAMPA-BBB): CNS +
Pe experimental ([3]; Table S2, PAMPA-BBB): 9,26 10-6 cm s-1
Plasma Metabolization Rate [4]: 13.04%
Effect on cAMP concentration [5]: no effect was observed
Effect on cAMP concentration [7]: important effect starting from 1 μM
Emax ([8]; CHO-K1, read-out: Emax (efficacy, % of the maximum effect)): 63%
EC50 [8]: 0.369 ± 0.03 µM
Ki [9]: 16 µM
Papp at 8 h, 0.5 mM ([10]; PAMPA): 10.2 ×10⁻⁶ cm/s
Pe Exp ([10]; Table S1, PAMPA-GTI): 10,18 10-6 cm/s
Fa ([10]; Table S1, PAMPA-GTI, absorbed fraction): 97,91%
PAMPA-GI Fa Exp ([10]; absorbed fraction, soybean L-α-phosphatidylcholine membrane): 97.91%
SMILES: Cc1c(N(C)C(=O)C(C)c2ccc(-c3ccccc3)c(F)c2)c(=O)n(-c2ccccc2)n1C (centres unmarked) [Compound 11, N-(1,5-dimethyl-3-oxo-2-phenyl-2,3-dihydro-1H-pyrazol-4-yl)-2-(2-fluoro-[1,1’-biphenyl]-4-yl)-N-methylpropanamide]
PAMPA-BBB Score ([3]; porcine brain lipid membrane): CNS+ (CNS+ (high predicted BBB permeability) Pe > 4.0 × 10^−6 cm/s)
Antinociceptive effect in the formalin test ([6]; 3 mg/kg): decreased pain behaviour
Analgesia in the second (late, inflammatory) phase of the formalin test ([6]; LASSBio-2265 1, 3 and 10 mg/kg p.o., morphine 2.5 mg/kg, ASA 200 mg/kg, listed as LASSBio-2265 (11)): remarkable analgesic activity in the late inflammatory phase; also recorded: comparable to both morphine and ASA
Analgesia in the first phase of the formalin test ([6]; morphine 2.5 mg/kg i.p., ASA 200 mg/kg p.o., LASSBio-2265 1, 3 and 10 mg/kg p.o., compared to vehicle): only morphine (2.5 mg/kg) promoted significant analgesia
Classification ([10]; Table S1, PAMPA-GTI): HIGH (high intestinal permeability: >70%)
